Measurements published in patent US9510592B2, “Pesticidal compositions and processes related thereto” (Dow AgroSciences LLC, priority 2012, dated 2016).

Each molecule was assayed on Beet Armyworm (Spodoptera exigua) (assay: Bioassay on Beet Armyworm (BAW), 128-well diet tray assay). Conditions: percent mortality of second instar larvae, 50 μg/cm^2 on artificial diet, five to seven days, 25° C.; Table 3.
Assay type: in vivo
Description: Certain molecules disclosed in this document were tested against BAW and CEW and CL using procedures described in the following examples. In the reporting of the results, the “BAW & CEW & CL Rating Table” was used (See Table Section).
Bioassays on BAW (Spodoptera exigua)
Bioassays on BAW were conducted using a 128-well diet tray assay. one to five second instar BAW larvae were placed in each well (3 mL) of the diet tray that had been previously filled with 1 mL of artificial diet to which 50 μg/cm^2 of the test compound (dissolved in 50 μL of 90:10 acetone-water mixture) had been applied (to each of eight wells) and then allowed to dry. Trays were covered with a clear self-adhesive cover, and held at 25° C., 14:10 light-dark for five to seven days. Percent mortality was recorded for the larvae in each well; activity in the eight wells was then averaged. The results are indicated in the table entitled “Table 3: Assay Results” (See Table Section).

Compound | BAW Rating
Cc1cc(/C=C/C(c2cc(Cl)cc(Cl)c2)C(F)(F)F)ccc1C(=O)NCc1ccc(Cl)nc1 (centres unmarked) [AC7] | A (50-100)
Cc1cc(/C=C/C(c2cc(Cl)cc(Cl)c2)C(F)(F)F)ccc1C(=O)NCc1ccccc1F (centres unmarked) [AC9] | A (50-100)
Cc1cc(/C=C/C(c2cc(Cl)cc(Cl)c2)C(F)(F)F)ccc1C(=O)NC1CSC1 (centres unmarked) [AC10] | A (50-100)
Cc1cc(/C=C/C(c2cc(Cl)cc(Cl)c2)C(F)(F)F)ccc1C(=O)NCc1ccccc1 (centres unmarked) [AC11] | A (50-100)
Cc1cc(/C=C/C(c2cc(Cl)cc(Cl)c2)C(F)(F)F)ccc1C(=O)NCc1ccccn1 (centres unmarked) [AC12] | A (50-100)
Cc1cc(/C=C/C(c2cc(Cl)cc(Cl)c2)C(F)(F)F)ccc1C(=O)NC1CS(=O)(=O)C1 (centres unmarked) [AC13] | A (50-100)
Cc1cc(/C=C/C(c2cc(Cl)cc(Cl)c2)C(F)(F)F)ccc1C(=O)NCc1cnc(Cl)s1 (centres unmarked) [AC15] | A (50-100)
Cc1cc(/C=C/C(c2cc(Cl)cc(Cl)c2)C(F)(F)F)ccc1C(=O)NC(C)(C)c1ccccn1 (centres unmarked) [AC16] | A (50-100)
Cc1cc(/C=C/C(c2cc(Cl)cc(Cl)c2)C(F)(F)F)ccc1C(=O)NNc1ccccc1F (centres unmarked) [AC17] | A (50-100)
Cc1cc(/C=C/C(c2cc(Cl)cc(Cl)c2)C(F)(F)F)ccc1C(=O)NCc1ncccn1 (centres unmarked) [AC18] | A (50-100)
Cc1cc(/C=C/C(c2cc(Cl)cc(Cl)c2)C(F)(F)F)ccc1C(=O)NCc1ccoc1 (centres unmarked) [AC20] | A (50-100)
Cc1cc(/C=C/C(c2cc(Cl)c(Cl)c(Cl)c2)C(F)(F)F)ccc1C(=O)NCc1ccc(Cl)nc1 (centres unmarked) [AC22] | A (50-100)
Cc1cc(/C=C/C(c2cc(Cl)c(Cl)c(Cl)c2)C(F)(F)F)ccc1C(=O)NC1CSC1 (centres unmarked) [AC23] | A (50-100)
Cc1cc(/C=C/C(c2cc(Cl)c(Cl)c(Cl)c2)C(F)(F)F)ccc1C(=O)NCc1cnc(Cl)s1 (centres unmarked) [AC26] | A (50-100)
Cc1cc(/C=C/C(c2cc(Cl)c(Cl)c(Cl)c2)C(F)(F)F)ccc1C(=O)NC(C)(C)c1ccccn1 (centres unmarked) [AC27] | A (50-100)
O=C(NCc1ccc(Cl)nc1)c1ccc(/C=C/C(c2cc(Cl)c(Cl)c(Cl)c2)C(F)(F)F)cc1Cl (centres unmarked) [AC28] | A (50-100)
O=C(NC1CSC1)c1ccc(/C=C/C(c2cc(Cl)c(Cl)c(Cl)c2)C(F)(F)F)cc1Cl (centres unmarked) [AC29] | A (50-100)
O=C(NC1CS(=O)(=O)C1)c1ccc(/C=C/C(c2cc(Cl)c(Cl)c(Cl)c2)C(F)(F)F)cc1Cl (centres unmarked) [AC30] | A (50-100)
O=C(NCc1ccc(Cl)nc1)c1ccc(/C=C/C(c2cc(Cl)c(Cl)c(Cl)c2)C(F)(F)F)cc1Br (centres unmarked) [AC31] | A (50-100)
O=C(NC1CSC1)c1ccc(/C=C/C(c2cc(Cl)c(Cl)c(Cl)c2)C(F)(F)F)cc1Br (centres unmarked) [AC32] | A (50-100)
O=C(NC1CS(=O)(=O)C1)c1ccc(/C=C/C(c2cc(Cl)c(Cl)c(Cl)c2)C(F)(F)F)cc1Br (centres unmarked) [AC33] | A (50-100)

Compound | BAW Rating
O=C(NC1CSC1)c1ccc(/C=C/C(c2cc(Cl)c(Cl)c(Cl)c2)C(F)(F)F)cc1C(F)(F)F (centres unmarked) [AC34] | A (50-100)
O=C(NC1CS(=O)(=O)C1)c1ccc(/C=C/C(c2cc(Cl)c(Cl)c(Cl)c2)C(F)(F)F)cc1C(F)(F)F (centres unmarked) [AC35] | A (50-100)
O=C(NCc1ccc(Cl)nc1)c1ccc(/C=C/C(c2cc(Cl)c(Cl)c(Cl)c2)C(F)(F)F)cc1C(F)(F)F (centres unmarked) [AC36] | A (50-100)
Cc1cc(/C=C/C(c2ccc(Cl)c(Cl)c2)C(F)(F)F)ccc1C(=O)NCc1ccc(Cl)nc1 (centres unmarked) [AC37] | A (50-100)
Cc1cc(/C=C/C(c2cc(Cl)c(F)c(Cl)c2)C(F)(F)F)ccc1C(=O)NCc1ccc(Cl)nc1 (centres unmarked) [AC38] | A (50-100)
Cc1cc(/C=C/C(c2cc(Cl)cc(Cl)c2)C(F)(F)F)ccc1C(=O)NCc1cncnc1 (centres unmarked) [AC39, 4-((E)-3-(3,5-Dichlorophenyl)-4,4,4-trifluorobut-1-enyl)-2-methyl-N-((pyrimidin-5-yl)methyl)benzamide] | A (50-100)
Cc1cc(/C=C/C(c2cc(Cl)cc(Cl)c2)C(F)(F)F)ccc1C(=O)NCC(=O)NC1CC1 (centres unmarked) [AC40] | A (50-100)
Cc1cc(/C=C/C(c2cc(Cl)cc(Cl)c2)C(F)(F)F)ccc1C(=O)NCC(=O)NC1CSC1 (centres unmarked) [AC41] | A (50-100)
Cc1cc(/C=C/C(c2cc(Cl)cc(Cl)c2)C(F)(F)F)ccc1C(=O)NCc1nc2ccccc2s1 (centres unmarked) [AC42] | A (50-100)
Cc1cc(/C=C/C(c2cc(Cl)cc(Cl)c2)C(F)(F)F)ccc1C(=O)NCc1cnccn1 (centres unmarked) [AC43] | A (50-100)
Cc1cc(/C=C/C(c2cc(Cl)cc(Cl)c2)C(F)(F)F)ccc1C(=O)NN(C)c1ccccc1F (centres unmarked) [AC45] | A (50-100)
Cc1cc(/C=C/C(c2cc(Cl)cc(Cl)c2)C(F)(F)F)ccc1C(=O)NCc1ccc(Cl)cc1 (centres unmarked) [AC48] | A (50-100)
O=C(NCc1ccc(Cl)nc1)c1ccc(/C=C/C(c2cc(Cl)cc(Cl)c2)C(F)(F)F)cc1F (centres unmarked) [AC49] | A (50-100)
Cc1cc(/C=C/C(c2cc(Cl)cc(Cl)c2)C(F)(F)F)ccc1C(=O)NCc1nccn1C (centres unmarked) [AC50] | A (50-100)
Cc1cc(/C=C/C(c2cc(Cl)cc(Cl)c2)C(F)(F)F)ccc1C(=O)NCC(=O)N(C)CC(F)(F)F (centres unmarked) [AC51] | A (50-100)
Cc1cc(/C=C/C(c2cc(Cl)c(F)c(Cl)c2)C(F)(F)F)ccc1C(=O)NC1CCOCC1 (centres unmarked) [AC52] | A (50-100)
Cc1cc(/C=C/C(c2cc(Cl)c(F)c(Cl)c2)C(F)(F)F)ccc1C(=O)NCc1ccc(Cl)cn1 (centres unmarked) [AC53] | A (50-100)
Cc1cc(/C=C/C(c2cc(Cl)c(F)c(Cl)c2)C(F)(F)F)ccc1C(=O)NCc1ccnc(Cl)c1 (centres unmarked) [AC54] | A (50-100)
CC(C)(C)OC(=O)CNC(=O)c1ccc(/C=C/C(c2cc(Cl)c(Cl)c(Cl)c2)C(F)(F)F)cc1Br (centres unmarked) [AC58] | A (50-100)
Cc1cc(/C=C/C(c2cc(Cl)cc(Cl)c2)C(F)(F)F)ccc1C(=O)Nc1ccc(Cl)nc1 (centres unmarked) [AC59] | A (50-100)
O=C(NC1CSC1)c1ccc(/C=C/C(c2cc(Cl)cc(Cl)c2)C(F)(F)F)cc1F (centres unmarked) [AC61] | A (50-100)

Compound | BAW Rating
O=C(CNC(=O)c1ccc(/C=C/C(c2cc(Cl)cc(Cl)c2)C(F)(F)F)cc1F)NCC(F)(F)F (centres unmarked) [AC62] | A (50-100)
O=C(NCc1ccc(Cl)nc1)c1ccc(/C=C/C(c2cc(Cl)c(F)c(Cl)c2)C(F)(F)F)cc1Br (centres unmarked) [AC63] | A (50-100)
O=C(CNC(=O)c1ccc(/C=C/C(c2cc(Cl)c(Cl)c(Cl)c2)C(F)(F)F)cc1Cl)NCC(F)(F)F (centres unmarked) [AC64, (E)-2-Chloro-N-(2-oxo-2-((2,2,2-trifluoroethyl)amino)ethyl)-4-(4,4,4-trifluoro-3-(3,4,5-trichlorophenyl)but-1-en-1-yl)benzamide] | A (50-100)
O=C(NCc1ccc(Cl)nc1)c1ccc(/C=C/C(c2cc(Cl)c(F)c(Cl)c2)C(F)(F)F)cc1F (centres unmarked) [AC65] | A (50-100)
O=C(CNC(=O)c1ccc(/C=C/C(c2cc(Cl)c(Cl)c(Cl)c2)C(F)(F)F)cc1Br)NCC(F)(F)F (centres unmarked) [AC66] | A (50-100)
O=C(NC1CSC1)c1ccc(/C=C/C(c2cc(Cl)c(F)c(Cl)c2)C(F)(F)F)cc1F (centres unmarked) [AC67] | A (50-100)
O=C(CNC(=O)c1ccc(/C=C/C(c2cc(Cl)c(F)c(Cl)c2)C(F)(F)F)cc1F)NCC(F)(F)F (centres unmarked) [AC68] | A (50-100)
Cc1cc(/C=C/C(c2cc(Cl)c(F)c(Cl)c2)C(F)(F)F)ccc1C(=O)NCC(=O)NCC(F)(F)F (centres unmarked) [AC69] | A (50-100)
COc1cc(/C=C/C(c2cc(Cl)c(F)c(Cl)c2)C(F)(F)F)ccc1C(=O)NC1CSC1 (centres unmarked) [AC71] | A (50-100)
CCc1cc(/C=C/C(c2cc(Cl)c(F)c(Cl)c2)C(F)(F)F)ccc1C(=O)NCc1ccc(Cl)nc1 (centres unmarked) [AC72] | A (50-100)
O=C(NCc1ccc(C(F)(F)F)nc1)c1ccc(/C=C/C(c2cc(Cl)c(Cl)c(Cl)c2)C(F)(F)F)cc1Br (centres unmarked) [AC75] | A (50-100)
Cc1cc(/C=C/C(c2cc(Cl)c(F)c(Cl)c2)C(F)(F)F)ccc1C(=O)NCc1cc(Cl)ccn1 (centres unmarked) [AC77] | A (50-100)
Cc1cc(/C=C/C(c2cc(Cl)c(Cl)c(Cl)c2)C(F)(F)F)ccc1C(=O)NCC(=O)NCC(F)(F)F (centres unmarked) [AC78] | A (50-100)
O=C(CNC(=O)c1ccc(/C=C/C(c2cc(Cl)c(F)c(Cl)c2)C(F)(F)F)cc1Br)NCC(F)(F)F (centres unmarked) [AC79, (E)-2-Bromo-4-(3-(3,5-dichloro-4-fluorophenyl)-4,4,4-trifluorobut-1-en-1-yl)-N-(2-oxo-2-((2,2,2-trifluoroethyl)amino)ethyl)benzamide] | A (50-100)
CCc1cc(/C=C/C(c2cc(Cl)c(F)c(Cl)c2)C(F)(F)F)ccc1C(=O)NCC(=O)NCC(F)(F)F (centres unmarked) [AC80] | A (50-100)
Cc1cc(/C=C/C(c2cc(Cl)cc(Cl)c2)C(F)(F)F)ccc1C(=O)NCC(=O)NC1CS(=O)(=O)C1 (centres unmarked) [AC81] | A (50-100)
O=C(NC1CS(=O)(=O)C1)c1ccc(/C=C/C(c2cc(Cl)cc(Cl)c2)C(F)(F)F)cc1F (centres unmarked) [AC83, (E)-4-(3-(3,5-Dichlorophenyl)-4,4,4-trifluorobut-1-en-1-yl)-N-(1,1-dioxidothietan-3-yl)-2-fluorobenzamide] | A (50-100)
O=C(NC1CS(=O)(=O)C1)c1ccc(/C=C/C(c2cc(Cl)c(F)c(Cl)c2)C(F)(F)F)cc1F (centres unmarked) [AC84] | A (50-100)
COc1cc(/C=C/C(c2cc(Cl)c(F)c(Cl)c2)C(F)(F)F)ccc1C(=O)NC1CS(=O)(=O)C1 (centres unmarked) [AC85] | A (50-100)
CCc1cc(/C=C/C(c2cc(Cl)c(F)c(Cl)c2)C(F)(F)F)ccc1C(=O)NC1CS(=O)(=O)C1 (centres unmarked) [AC86] | A (50-100)
